The values that follow are results of earlier work, collected in US20090068264A1, “Clinical Applications of Tetrahydrobiopterin, Lipoic Acid and Their Salts and Methods of Preparing Tetrahydrobiopterin Bis-Lipoate” (ChronoRX LLC, priority 2005, published 2009).

The test system of the data set is cerebral ischemia-reperfusion. The settings on record: animal studies of cerebral ischemia; after LA pretreatment; reduced from 78% without pretreatment.

On to `O=C(O)CCCCC1CCSS1` (stereo not shown) [LA, 1,2-dithiolane-3-pentanoic acid], for which the “mortality rate during 24 hours of reperfusion” value was 26%.
